Experiment: solubility in DMAC
Conditions: in DMAC (dimethylacetamide)

solubility: about 30%
SMILES: O=c1[nH]c(=O)c2ccccc2o1 [carsalam, 2H-1,3-benzoxazine-2,4(3H)-dione]

— patent US6900344B2, “Method of preparing alkylated salicylamides via a dicarboxylate intermediate” (Emisphere Technologies, Inc., priority 2000, dated 2005)
